Measurements from article PMC4454677, “Prolyl Oligopeptidase from the Blood Fluke Schistosoma mansoni: From Functional Analysis to Anti-schistosomal Inhibitors” (PLoS Neglected Tropical Diseases, 2015).
“Also recorded” adds a separate entry of the source. Where a name gives a salt, the structure may show the parent alone. Read-outs that look alike come from different tables or passages of the source. Numbered stars: 1 amine (or outer) side, 2 acyl side, 3 side chain; on linkers, the order of the positions; unused ones are H or OH. Square brackets hold non-standard residues; d marks the D form. Peptide text beside a SMILES is read from it. * marks the point of attachment. Sta = CC(C)C[C@H](N)[C@@H](O)CC(=O)O; Isovaleryl = CC(C)CC(=O)*; Cbz = O=C(OCc1ccccc1)*; CO = O=C([*:1])[*:2]; CH2Cl = ClC*

Assays:
recombinant SmPOP = recombinant SmPOP (Schistosoma mansoni, UniProt A0A5K4EZK1); experiment: biochemical; assay type: biochemical
human POP (HsPOP) = target: T1, human POP (HsPOP) (Homo sapiens, UniProt P48147); experiment: biochemical
T1 sequence (P48147 1-710): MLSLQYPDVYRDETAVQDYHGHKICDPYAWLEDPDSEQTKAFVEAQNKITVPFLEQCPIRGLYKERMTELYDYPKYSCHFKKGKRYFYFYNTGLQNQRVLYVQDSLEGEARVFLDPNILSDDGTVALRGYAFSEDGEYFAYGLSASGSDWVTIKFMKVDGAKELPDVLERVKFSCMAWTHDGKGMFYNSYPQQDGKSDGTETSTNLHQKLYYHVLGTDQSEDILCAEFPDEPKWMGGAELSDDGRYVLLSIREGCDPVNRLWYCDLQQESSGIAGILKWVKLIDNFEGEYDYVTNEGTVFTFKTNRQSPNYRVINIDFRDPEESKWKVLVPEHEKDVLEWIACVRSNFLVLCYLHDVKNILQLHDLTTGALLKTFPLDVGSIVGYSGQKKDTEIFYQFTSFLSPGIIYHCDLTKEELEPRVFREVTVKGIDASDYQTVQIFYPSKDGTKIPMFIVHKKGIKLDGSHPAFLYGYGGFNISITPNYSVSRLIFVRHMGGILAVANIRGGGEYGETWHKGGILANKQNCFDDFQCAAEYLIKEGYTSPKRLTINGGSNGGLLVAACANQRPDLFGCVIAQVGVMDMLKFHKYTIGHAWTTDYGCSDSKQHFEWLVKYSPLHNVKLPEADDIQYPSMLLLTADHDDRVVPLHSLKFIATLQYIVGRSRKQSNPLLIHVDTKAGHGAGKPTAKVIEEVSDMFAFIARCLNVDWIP

[1] = tested on: newly transformed schistosomula (NTS); experiment: Parasite assay and phenotype scoring with NTS in culture; assay type: cell-based, Schistosoma mansoni; conditions: inhibitors at 10 μM and 1 μM, up to 4 days, grade I most severe
Procedure: NTS (200–300 parasites) were incubated in 200 μL of Basch Medium 169 and supplements, as described above. Inhibitors were added at final concentrations of 1 or 10 μM (0.5% DMSO final) and the incubations continued for 4 days. Grading of phenotypic responses arising as a function of time and concentration was modified after Jilkova et al.: Grade I, dead NTS by 2 days of culture at 10 μM and dying/dead NTS by 3 days at 1 μM. Grade II, dead NTS by 3 days at 10 μM and round/dark/dying by 3 days at 1 μM; Grade III, round/dark by 3 days at 1 and 10 μM concentrations (S1 Fig). ‘Dead’ was adjudicated as the loss of normal shape and the lack of movement often accompanied by obvious internal disruptions. ‘Dying’ was similar to death except that movement was detectable. Otherwise, the terms ‘round/dark’ were used to indicate less severe but obvious changes in the parasites relative to DMSO controls.

[2] = tested on: SmPOP activity of live NTS and adult schistosomes; experiment: Fluorescence SmPOP activity assay with cultured schistosomes; assay type: cell-based, Schistosoma mansoni; conditions: 1 μM inhibitor; NTS or adult worms in culture
Procedure: Adult worms (3 pairs) or approximately 150 NTS were incubated at 37°C and 5% CO2 for 2 days in 200 μL of Basch Medium 169 containing 5% FBS, 100 units/mL of penicillin and 100 μg/mL using black clear bottomed 96-well microplates (Costar). After incubation, half of the medium (100 μl) was transferred to an empty well leaving the parasites in the remaining half. Then SmPOP activity was measured in both wells upon the addition of 20 μL of Z-Gly-Pro-AMC (prepared as a 250 μM stock in Basch Medium 169) and in the presence or absence of 1 μM of the POP inhibitor, Z-Ala-Pro-CMK. Controls contained medium alone.

[3] = tested on: adult schistosomes (cleavage of angiotensin I and bradykinin); experiment: Hydrolysis of peptide hormones by cultured schistosomes (MALDI-TOF); assay type: cell-based, Schistosoma mansoni; conditions: live adults in culture; 16 h; mass spectrometry
Procedure: Five adult schistosome pairs were placed into clear, 24-well, flat-bottom plates (Costar) containing 500 μL Basch Medium […] [28], supplemented with 2.5% FBS, 100 units/mL penicillin and 100 μg/mL streptomycin. Human angiotensin I or bradykinin in 5 μL water was added to a final concentration of 100 μM and the incubation continued for 16 h at 37°C under a 5% CO2 atmosphere. In control experiments, the peptides were cultivated in the same system in the absence of schistosomes. After incubation, the samples were ZipTiped and the resulting fragments were analyzed using MALDI-TOF performed on an UltrafleXtreme (Bruker Daltonik) operated in reflectron mode with an acceleration voltage of 25 kV and a pulsed ion extraction of 120 ns. Desorption and ionization were achieved using a Smartbeam II laser. α-Cyano-4-hydroxycinnamic acid was used as a matrix. The data were acquired from m/z 220 to 3700 and analyzed with the FlexAnalysis 3.3 software (Bruker Daltonik). The mass spectra were externally calibrated using a Peptide Calibration Standard I (Bruker Daltonik) and averaged from 3000 laser shots.

CC(C)C[C@H](NC(=O)[C@H]1O[C@@H]1C(=O)O)C(=O)NCCCCN=C(N)N (relative stereo) [E64, trans-Epoxysuccinyl-L-leucylamido(4-guanidino)butane]
Inhibition (%) (recombinant SmPOP; 10 µM): 6.5±6.1%

O=c1oc(Cl)c(Cl)c2ccccc12 [3,4-dichloroisocoumarin]
Inhibition of rSmPOP activity (in words) (recombinant SmPOP): Partial inhibition
inhibition at 100 µM (recombinant SmPOP): 77.3 ± 0.6%

CC(C)[C@H](NC(=O)[C@H](CCCNC(=N)N)NC(=O)N[C@@H](Cc1ccccc1)C(=O)O)C(=O)N[C@H](C=O)CCCNC(=N)N [Antipain] ({Phe-CO}-Arg-Val-Arg-aldehyde)
inhibition at 20 µM (recombinant SmPOP): 32.4 ± 1.4%

N=C(N)c1ccccc1 [Benzamidine]
Inhibition of rSmPOP activity (in words) (recombinant SmPOP): only weakly
inhibition at 10 µM (recombinant SmPOP): 3.7 ± 1.1%

CC(C)C[C@H](NC(=O)[C@@H](O)[C@H](N)Cc1ccccc1)C(=O)O [Bestatin]
inhibition at 1 µM (recombinant SmPOP; read-out: Inhibition (%)): 2.3 ± 2.1%

O=C(O)CN(CCN(CC(=O)O)CC(=O)O)CC(=O)O [EDTA]
Inhibition (%) (recombinant SmPOP; 1000 µM): 3.8±2.3%

CC(=O)N[C@@H](CC(C)C)C(=O)N[C@@H](CC(C)C)C(=O)N[C@H](C=O)CCCNC(=N)N [Leupeptin]
inhibition at 20 µM (recombinant SmPOP): 2.3 ± 1.2%

O=S(=O)(F)Cc1ccccc1 [PMSF, phenylmethylsulfonyl fluoride]
Inhibition of rSmPOP activity (in words) (recombinant SmPOP): Partial inhibition
Inhibition (%) (recombinant SmPOP; 1000 µM): 47.6±1.6%

Cl.NCCc1ccc(S(=O)(=O)F)cc1 [Pefabloc SC]
Inhibition of rSmPOP activity (in words) (recombinant SmPOP): Partial inhibition; also recorded: only weakly
Inhibition (%) (recombinant SmPOP; 1000 µM): 12.0±3.1%

CC(C)CC(=O)N[C@H](C(=O)N[C@H](C(=O)N[C@@H](CC(C)C)[C@@H](O)CC(=O)N[C@@H](C)C(=O)N[C@@H](CC(C)C)[C@@H](O)CC(=O)O)C(C)C)C(C)C [Pepstatin A] (Isovaleryl-VV[Sta]A[Sta]-OH)
inhibition at 1 µM (recombinant SmPOP): 7.3 ± 3.5%

O=C([C@@H]1C[C@@H](O)CN1C(=O)CCCOc1ccccc1/C=C/c1ccccc1)N1CCSC1 [SUAM 14746]
IC50 (human POP (HsPOP); read-out: IC50 human POP): 0.083 µM
IC50 (recombinant SmPOP; read-out: IC50 SmPOP): 0.092 µM
Severity of phenotype against parasite, Grade [1]: no effect

Cc1ccc(S(=O)(=O)N[C@@H](CCCCN)C(=O)CCl)cc1 [TLCK, Nα-Tosyl-L-lysine chloromethyl ketone]
Inhibition of rSmPOP activity (in words) (recombinant SmPOP): Partial inhibition
Inhibition (%) (recombinant SmPOP; 1 µM): 38.3±1.2%

Cc1ccc(S(=O)(=O)N[C@@H](Cc2ccccc2)C(=O)CCl)cc1 [TPCK, N-p-Tosyl-L-phenylalanine chloromethyl ketone]
Inhibition of rSmPOP activity (in words) (recombinant SmPOP): Partial inhibition
Inhibition (%) (recombinant SmPOP; 1 µM): 67.2±6.2%

CC(C)c1ccc(C(=O)c2cccs2)c(SCCCCCCCCN(C)C)n1 [Y-29794 oxalate, 2-[[8-(Dimethylamino)octyl]thio]-6-(1-methylethyl)-3-pyridinyl-2-thienylmethanone oxalate]
IC50 (human POP (HsPOP); HsPOP, Z-Gly-Pro-AMC, pH 8.0, mean ± S.D., n=3, read-out: IC50 (μM) HsPOP): 0.49 ± 0.03 µM
IC50 (recombinant SmPOP; read-out: IC50 (μM) SmPOP): 8.6 ± 0.4 µM

C[C@H](NC(=O)OCc1ccccc1)C(=O)N1CCC[C@H]1C=O [Z-Ala-Pro-CHO] (Cbz-Ala-Pro-aldehyde)
IC50 (human POP (HsPOP); read-out: IC50 (μM) HsPOP): 6.1 ± 0.3 µM
IC50 (recombinant SmPOP; read-out: IC50 (μM) SmPOP): 3.1 ± 0.2 µM

C[C@H](NC(=O)OCc1ccccc1)C(=O)N1CCC[C@H]1C(=O)CCl [Z-Ala-Pro-CMK, Z-Ala-Pro-chloromethyl ketone] (Cbz-Ala-Pro-CH2Cl)
IC50 (human POP (HsPOP); read-out: IC50 (μM) HsPOP): 0.0168 ± 0.0046 µM
Inhibition of rSmPOP activity (in words) (recombinant SmPOP): completely inhibited
inhibition at 1 µM (recombinant SmPOP): 100 ± 3%
IC50 (recombinant SmPOP; read-out: IC50 (μM) SmPOP): 0.0032 ± 0.0004 µM
Cleavage of Z-Gly-Pro-AMC by live NTS or adult schistosomes in the presence of inhibitor [2]: abolished
Fragmentation of angiotensin I and bradykinin by adult parasites in the presence of inhibitor [3]: abolished

N=C(N)NCCC[C@H](NC(=O)OCc1ccccc1)C(=O)N1CCC[C@H]1C=O [Z-Arg-Pro-CHO] (Cbz-Arg-Pro-aldehyde)
IC50 (human POP (HsPOP); read-out: IC50 (μM) HsPOP): 2.4 ± 0.2 µM
IC50 (recombinant SmPOP; read-out: IC50 (μM) SmPOP): 1.3 ± 0.3 µM

N=C(N)NCCC[C@H](NC(=O)OCc1ccccc1)C(=O)N1CCC[C@H]1C(=O)CCl [Z-Arg-Pro-CMK] (Cbz-Arg-Pro-CH2Cl)
IC50 (human POP (HsPOP); read-out: IC50 (μM) HsPOP): 0.0048 ± 0.0006 µM
IC50 (recombinant SmPOP; read-out: IC50 (μM) SmPOP): 0.0029 ± 0.0001 µM

O=C[C@@H]1CCCN1C(=O)CNC(=O)OCc1ccccc1 [Z-Gly-Pro-CHO] (Cbz-Gly-Pro-aldehyde)
IC50 (recombinant SmPOP; read-out: IC50 (μM) SmPOP): 6.1 ± 0.4 µM

NCCCC[C@H](NC(=O)OCc1ccccc1)C(=O)N1CCC[C@H]1C=O [Z-Lys-Pro-CHO] (Cbz-Lys-Pro-aldehyde)
IC50 (human POP (HsPOP); read-out: IC50 (μM) HsPOP): 7.2 ± 0.6 µM
IC50 (recombinant SmPOP; read-out: IC50 (μM) SmPOP): 3 ± 0.6 µM
Severity of phenotype against parasite, Grade [1]: I

O=C(O)[C@@H]1CCCN1C(=O)OCc1ccccc1 [Z-Pro-OH]
Inhibition (%) (recombinant SmPOP; 100 µM): 41.1±1.8%

O=C[C@@H]1CCCN1C(=O)[C@@H]1CCCN1C(=O)OCc1ccccc1 [Z-Pro-Pro-CHO, benzyloxycarbonyl-L-prolyl-L-prolinal] (Cbz-Pro-Pro-aldehyde)
Inhibition of rSmPOP activity (in words) (recombinant SmPOP): completely inhibited
IC50 (recombinant SmPOP; read-out: IC50 (μM) SmPOP): 0.16 ± 0.03 µM
inhibition at 1 µM (recombinant SmPOP; read-out: Inhibition (%)): 100 ± 1%
Severity of phenotype against parasite, Grade [1]: no effect

O=C(O)[C@@H]1CCCN1C(=O)[C@@H]1CCCN1C(=O)OCc1ccccc1 [Z-Pro-Pro-OH] (Cbz-Pro-Pro-OH)
Inhibition (%) (recombinant SmPOP; 100 µM): 37.6±2.1%

O=C[C@@H]1CCCN1C(=O)[C@H](Cc1ccc(O)cc1)NC(=O)OCc1ccccc1 [Z-Tyr-Pro-CHO] (Cbz-Tyr-Pro-aldehyde)
IC50 (human POP (HsPOP); read-out: IC50 (μM) HsPOP): 11.4 ± 0.7 µM
IC50 (recombinant SmPOP; read-out: IC50 (μM) SmPOP): 4.4 ± 0.4 µM

B1: STI: soybean trypsin inhibitor, protein inhibitor of serine peptidases (protein, UniProt P01070 25-205, looked up)
Trypsin inhibitor A: DFVLDNEGNPLENGGTYYILSDITAFGGIRAAPTGNERCPLTVVQSRNELDKGIGTIISSPYRIRFIAEGHPLSLKFDSFAVIMLCVGIPTEWSVVEDLPEGPAVKIGENKDAMDGWFRLERVSDDEFNNYKLVFCPQQAEDDKCGDIGISIDHDDGTRRLVVSKNKPLVVQFQKLDKESL
Inhibition of rSmPOP activity (in words) (recombinant SmPOP): neither affected
Inhibition (%) (recombinant SmPOP; 10 µM): 12.3±3.2%
